Measured values from US20080275105A1, “Selective Muscle Relaxant and Pharmaceutical Compositions” (UNIVERSIDADE FEDERAL DO RIO DE JANEIROUFRJ, priority 2004, published 2008).
Several values for one entry are separate records, joined by “and”; a condition that tells them apart may be missing. Equal entries are not always repeated. Entries after “also recorded” stand apart in the source; their conditions may differ.

What was measured:
[1] = test system: left ventricle bundles of a rat heart; experiment: Isometric tension in ventricular bundles; type: cell-based; conditions: for muscular response in ventricular bundles: concentration not given, alterations not greater than 10%
Protocol: (§1) Once the experiments have been carried out, the findings were subject to statistical analyses being expressed in average ±SEM as a percentage of the control value, and graphs were drawn up using the Sigma Plot 5.0 program to represent the data obtained. For the statistical analysis of the effects on the different muscle tissues, the difference was assessed among the concentrations of the same derivative, using the “t” Student test. In order to ascertain the difference among the derivatives, the one-way ANOVA test was used. The differences were considered as significant for p<0.05. The Cl50 was expressed as an average ±SEM of the values obtained for each experiment through non-linear regression based on the y=yo+ae^−bx equation.
(§2) After anesthesia with ethyl ether, male Wistar rats weighing between 240-280 grams were sacrificed through cervical dislocation. The heart was removed rapidly and the papillary muscle and the ventricular bundles were dissected in Tyrode's solution, whose composition is given in Table 2 below, at room temperature. The muscles were placed in vertical chambers with a capacity of 10 mL and fixed at their extremities: the lower portion to a hook located in the stimulation electrode fixation rod and the upper portion connected to a power transducer (Grass FT03) for recording the muscle twitches.
(§3) The muscles were stimulated electrically with supra-maximum voltage (50-60 V) through a stimulator (Grass S88) at a frequency of 1.0 Hz. The signals captured by the transducer were amplified (Cyberamp 380, Axon Instruments) and the isometric tension was digitized (Digidata 1322A, Axon Instruments) and stored on a computer. The screening and analysis of the experiment was handled through the Axoscope 8.0 program (Axon Instruments) (Sudo & cols., 2001). The chamber solution was bubbled continuously with a carbogenic mixture (95% O2/5% CO2) and kept at a temperature of 37° C.
(§4) After the stabilization of the muscle twitches (approximately 30 min) the records were carried out in the absence (control) and presence of rising concentrations (10 to 100 μM) of the different L294 analogs, diluted in DMSO. The records were carried out in pairs (two papillary and two ventricle) thus allowing the control experiments to be carried out in one of the pairs, meaning with rising quantities of DMSO equivalent to those used to dilute the substances. The reversibility of the effect of the substances was investigated at the end of each experiment, noting the recovery of the muscle twitches after bathing the preparation with Tyrode's solution.

rat papillary muscle = experiment: Isometric tension (electrically stimulated twitches) in papillary muscle; type: cell-based; conditions: for maximum alterations to the papillary muscle twitches: 10 to 100 μM, not significant; for amplitude of the papillary muscle twitches: 100 μM, 1 Hz stimulation
Protocol: as §1, §2, §3, §4

[2] = test system: rat aorta rings with the vascular endothelium preserved; experiment: Phenylephrine-induced contracture in aorta rings with preserved endothelium; type: cell-based; conditions: phenylephrine 10 μM; for IC50: Rattus norvegicus, with endothelium, six experiments, read-out: CI50 (μM) Average ± SEM
Protocol: as §1
(§5) Male Wistar rats weighing between 240-280 grams were sacrificed through dislocation of the cervical column under anesthesia using ethyl ether. The aorta artery was removed and transferred to a Petri dish containing modified Tyrode's solution whose composition is described in Table 3 below, where the vessel was cleaned and the connective tissue was removed. According to the scheduled Experiment Protocol, the vascular endothelium was removed mechanically with the assistance of a polyethylene rod. The artery was divided into rings with a width of 2-3 mm. Two hooks were placed in the wall of the vessel in order to record the tension generated by the muscle in a transversal direction. To do so, one of the hooks was tied to a fixed point in the chamber and the other to a power transducer (FT 03) for recording the isometric tension. The tension generated by the muscle was transformed into a digitized electric signal (Digidata 1322A) and stored in a computer for subsequent analysis using the Axoscope 8.0 program (Axon Instruments, Inc). The chamber was filled with Krebs solution, oxygenated and kept at a temperature of 37° C.
(§6) After stabilizing the preparation, approximately 120 minutes, the Experiment Protocol began. Initially, in order to identify the presence or absence of the vascular endothelium, the preparation was exposed to phenylephrine (10 μM) and when the contracture in response to this substance was stabilized, acetylcholine (10 μM) was added to the nutrient solution. Relaxation of over 80% in response to the acetylcholine indicated the full integrity of the endothelium and relaxation of less than 10% indicated the absence of endothelium. The tissues in which the relaxation intensity fell between >10% and <80% were discarded. In order to investigate the vasodilator effect of the different L294 analogs, they were added to the experiment chambers in rising concentration after the contracture stabilization of the vessel induced by phenylephrine. The tension registered after treatment with each of the L294 analog concentrations was normalized as a function of the amplitude of the contracture triggered by phenylephrine. For the purpose of comparing the potency of some of the L294 analogs, the Cl50 was determined for each experiment using the y=yo+ae^−bx equation and their mean was used for the statistical analysis.

soleus (SOL) muscle = experiment: Electrically induced twitch amplitude in slow-fiber skeletal muscle (SOL); type: cell-based, mice; conditions: for SOL twitch amplitude 30 min-Washing (% of the control): 30 min after washing
Protocol: (§7) Male mice weighing 22-28 g were sacrificed through cervical dislocation and the extensor digitorium longus (EDL) and soleus (SOL) muscles were dissected in a Ringer-Krebs solution, whose composition is given in Table 9, at room temperature. The muscles were placed in vertical chambers with a capacity of 10 ml, and were fixed by their ends to the stimulation electrode fixation rod and a power transducer (Grass FT03) for registering muscle twitches. The chamber solution was bubbled continuously with a carbogenic mixture (95% O2/5% CO2) and kept at a temperature of 37° C. The muscles were stimulated electrically through a stimulator (Grass S88) at a frequency of 0.2 Hz, at 37° C. After the stabilization of the muscle twitches (±30 minutes) a control record was taken in the absence of the drug, and subsequently rising concentrations (from 10 μM to 200 μM) of the L294 derivatives were added every ten minutes, diluted in DMSO. […] The signals recorded by the transducer were amplified (Cyberamp) and the isometric tension was digitized (Digidata 1322A) and stored on a computer. The screening and analysis of the experiment was handled through the use of the Axoscope 8.0 program. (Zapata-Sudo, 2003).
(§8) A measurement of the electrically-induced twitch amplitude was selected to assist the effects of the L294 analogs on the skeletal muscle inotropism. One muscle consisting of fast fibers (extensor digitorium longus-EDL) and the other of slow fibers (soleus-SOL) taken from mice were selected for this purpose. Differences in the timing of the twitches between the fast and slow muscles are shown at the faster recording speed. […] Washing the preparation with Krebs solution caused a partial reversion of the effects induced by the L786.

[3] = test system: extensor digitorium longus (EDL) muscle; experiment: Electrically induced twitch amplitude in fast-fiber skeletal muscle (EDL); type: cell-based, mice; conditions: for EDL twitch amplitude 30 min-Washing (% of the control): 30 min after washing
Protocol: as §7, §8

[4] = test system: aorta rings with no preserved endothelium; experiment: Phenylephrine-induced contracture in aorta rings without endothelium; type: cell-based, rat; conditions: phenylephrine 10 μM; for IC50: Rattus norvegicus, without endothelium, six experiments, read-out: CI50 (MM) Average ± SEM; for vasodilatory / relaxing effect on phenylephrine contracture, without endothelium: result in words
Protocol: as §1, §5, §6
The importance of the presence of vascular endothelium in the vasodilatory action of the L294 analogs was assessed in experiments in which these cells were removed mechanically. […] When the findings of the experiments without the endothelium were analyzed as a whole, the absence of the L790 effect was confirmed. […] The maximum relaxation caused by the L787 and L789 analogs was less than 50% of the control, and the other analogs caused relaxation in the following decreasing order of efficacy: L785>L788>L786. Once again, attention is drawn to the marked efficiency of the L785 and L788 analogs.

[5] = test system: rat aorta rings with no endothelium; experiment: KCl-induced contracture in aorta rings without endothelium; type: cell-based; conditions: Rattus norvegicus; KCl 40 mM; without endothelium; six experiments; read-out: CI50 (μM) Average ± SEM
Protocol: as §1, §5
as §6, with “[…] […]” for “In order to investigate the vasodilator effect of the different L294 analogs, they were added to the experiment chambers in rising concentration after the contracture stabilization of the vessel induced by phenylephrine. The tension registered after treatment with each of the L294 analog concentrations was normalized as a function of the amplitude of the contracture triggered by phenylephrine.”

[6] = test system: rat aorta rings with preserved endothelium; experiment: KCl-induced contracture in aorta rings with preserved endothelium; type: cell-based; conditions: KCl 40 mM
Protocol: as §1, §5, §6
The effects of the L294 analogs were investigated in rat aorta rings with preserved endothelium whose contracture was induced by increasing the extra-cellular concentration of KCl to 40 mM. Of the seven L294 analogs, this test was carried out only with the L785, L786, L789 and L790, in this group of experiments.

[7] = test system: corpus cavernosa of a male guinea pig; experiment: Phenylephrine-induced contracture in corpus cavernosa; type: cell-based; conditions: 200 μM; phenylephrine 30 μM
Protocol: It is noted that L788 concentration-dependent inhibition occurred for the contractile response of the corpus cavernosa.
This same Protocol Experiment was repeated for the other derivatives being tested and for the solvent separately (FIG. 11). It was noted that only L788 caused significant reaction, where the amplitude of the contracture at a concentration of 200 μM was 46.5±8.8% of the control. […] The effect of the solvent (DMSO) was tested at volumes corresponding to those used for the derivatives, and was unable to cause any significant alterations to the contractility of this tissue.

IC50 [2] [µM]	IC50 [4] [µM]	IC50 [5] [µM]	Compound	muscular response in ventricular bundles [1]	maximum alterations to the papillary muscle twitches (rat papillary muscle)	maximum inhibition levels of phenylephrine contracture, with endothelium [2] [%]	SOL twitch amplitude 200 μM (% of the control) (soleus (SOL) muscle)	EDL twitch amplitude 200 μM (% of the control) [3]	EDL twitch amplitude 30 min-Washing (% of the control) [3]	amplitude of the papillary muscle twitches (rat papillary muscle)	SOL twitch amplitude 30 min-Washing (% of the control) (soleus (SOL) muscle)	vasodilatory / relaxing effect on phenylephrine contracture, without endothelium [4]	amplitude of the KCl contracture, with endothelium ([6]; 200 μM stated for L790)	CI50 (μM) Average ± SEM ([6]; with endothelium, six experiments)	inhibition of the KCl contracture, with endothelium ([6]; up to 100 μM, result in words)	muscle twitches / contractility in ventricular bundles ([1]; 100 μM)	amplitude of the phenylephrine contracture in rings with whole endothelium ([2]; maximum effect)	amplitude of the phenylephrine-induced contracture of the corpus cavernosa [7]
293 ± 76	273 ± 22		Cc1ccc(/C=N/NC(=O)c2ccc3c(c2)OCO3)s1 [L787, 1,3-Benzodioxol-5-carboxylic acid, [1-(5-methyl-thiophene-2-yl)-meth-(E)-ylidene]-hydrazide]	105±6.9 % of the control	115.0±5.0 % of the control	37.1±7.0	47.6±4.2 % of the control	37.8±3.5 % of the control	38.6 ± 2.5 % of the control									
173 ± 26.7			O=C(NNCc1cccs1)c1ccc2c(c1)OCO2 [L791, 1,3-Benzodioxol-5-carboxylic acid, N′-thiophene-2-ylmethyl-hydrazide]	89.4±4.5 % of the control	92.4±2.5 % of the control	59.2±7.8	69.3±4.8 % of the control	45.8±6.9 % of the control and 45.9 ± 6.9 % of the control		did not significantly alter the contractile response	74.4 ± 13.8 % of the control	did not result in any vasodilatory activity; also recorded: lacked vasodilatory action						
216 ± 39.3		123 ± 17.3	O=C(N/N=C/c1ccc([N+](=O)[O-])s1)c1ccc2c(c1)OCO2 [L790, 1,3-Benzodioxol-5-carboxylic acid, [1-(5-nitro-thiophene-2-yl)-meth-(E)-ylidene]-hydrazide]	92.3±1.6 % of the control	87.8±5.6 % of the control	47.0±5.9	71.3±5.2 % of the control	52.2±3.4 % of the control and 52.2 ± 3.8 % of the control	49.2 ± 5.1 % of the control		70.8 ± 7.7 % of the control	absence of the relaxing effect; also recorded: lacked vasodilatory action; also recorded: did not cause a significant relaxing effect	74.9±8.8 % of the control	cannot be determined	insignificant			
67.9 ± 6.5	65.7 ± 8		C=CCN(/N=C/c1cccs1)C(=O)c1ccc2c(c1)OCO2 [L788, 1,3-Benzodioxol-5-carboxylic acid, N′-[1-thiophene-2-yl-meth-(E)-ylidene]-N-allyl-hydrazide]				45.1±5.1 % of the control	47.6±5.4 % of the control	26.8 ± 2.3 % of the control	81.2±2.6 % of the control	37.8 ± 4.7 % of the control					74.9±5.1 % of the control	10.4±3.2 % of the control	46.5±8.8 % of the control
